target: Peptidyl-prolyl cis-trans isomerase NIMA-interacting 1 (Homo sapiens, UniProt Q13526, S16A/Y23A); experiment: Binding affinity to N-terminal MBP fused and Texas-red-labeled full-length human Pin1 S16A/Y23A mutant expressed in Escherichia coli assessed as increase in fluorescence anisotropy by spectrofluorimetry; conditions: read-out: Kd
Sequence (Q13526 whole entry S16A/Y23A, the tested form may be a part): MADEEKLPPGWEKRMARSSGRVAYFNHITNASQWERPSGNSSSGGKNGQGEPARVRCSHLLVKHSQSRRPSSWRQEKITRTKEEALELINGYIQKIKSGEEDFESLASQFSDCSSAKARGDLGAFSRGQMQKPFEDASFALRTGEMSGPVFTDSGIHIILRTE

SMILES	Kd [µM]
C[C@@H]1NC(=O)[C@H](CCCNC(=N)N)NC(=O)[C@H](Cc2ccc3ccccc3c2)NC(=O)[C@H]2CCCCN2C(=O)[C@@H]([C@H](C)O)NC(=O)[C@H](Cc2ccc(F)cc2)NC(=O)[C@@H](Cc2ccccc2)NC(=O)c2cc3cc(c2)C(=O)NC[C@@H](C(=O)N[C@@H](CCCCN)C(=O)O)NC(=O)[C@H](CCCNC(=N)N)NC(=O)[C@H](CCCNC(=N)N)NC(=O)[C@H](CCCNC(=N)N)NC(=O)[C@H](CCCNC(=N)N)NC(=O)[C@H](Cc2ccc4ccccc4c2)NC(=O)[C@H](Cc2ccccc2)NC(=O)[C@H](CNC3=O)NC1=O	0.9
C[C@@H]1NC(=O)[C@H](CCCNC(=N)N)NC(=O)[C@H](Cc2ccc3ccccc3c2)NC(=O)[C@H]2CCCCN2C(=O)[C@@H](CC(=O)O)NC(=O)CN(C)C(=O)[C@@H]2CCCN2C(=O)c2cc3cc(c2)C(=O)NC[C@@H](C(=O)N[C@@H](CCCCN)C(=O)O)NC(=O)[C@H](CCCNC(=N)N)NC(=O)[C@H](CCCNC(=N)N)NC(=O)[C@H](CCCNC(=N)N)NC(=O)[C@H](CCCNC(=N)N)NC(=O)[C@H](Cc2ccc4ccccc4c2)NC(=O)[C@H](Cc2ccccc2)NC(=O)[C@H](CNC3=O)NC(=O)CCNC1=O	2.08
C[C@@H]1NC(=O)[C@H](CCCNC(=N)N)NC(=O)[C@H](Cc2ccc3ccccc3c2)NC(=O)[C@H]2CCCCN2C(=O)[C@@H](CC(=O)O)NC(=O)CN(C)C(=O)[C@@H]2CCCN2C(=O)c2cc3cc(c2)C(=O)NC[C@@H](C(=O)N[C@@H](CCCCN)C(=O)O)NC(=O)[C@H](CCCNC(=N)N)NC(=O)[C@H](CCCNC(=N)N)NC(=O)[C@H](CCCNC(=N)N)NC(=O)[C@H](CCCNC(=N)N)NC(=O)[C@H](Cc2ccc4ccccc4c2)NC(=O)[C@H](Cc2ccccc2)NC(=O)[C@H](CNC3=O)NC1=O	2.59
C[C@@H]1NC(=O)CCNC(=O)[C@H](CCCNC(=N)N)NC(=O)[C@H](Cc2ccc3ccccc3c2)NC(=O)[C@H]2CCCCN2C(=O)[C@@H](CC(=O)O)NC(=O)CN(C)C(=O)[C@@H]2CCCN2C(=O)c2cc3cc(c2)C(=O)NC[C@@H](C(=O)N[C@@H](CCCCN)C(=O)O)NC(=O)[C@H](CCCNC(=N)N)NC(=O)[C@H](CCCNC(=N)N)NC(=O)[C@H](CCCNC(=N)N)NC(=O)[C@H](CCCNC(=N)N)NC(=O)[C@H](Cc2ccc4ccccc4c2)NC(=O)[C@H](Cc2ccccc2)NC(=O)[C@H](CNC3=O)NC1=O	1.75
C[C@@H]1NC(=O)[C@H](CCCNC(=N)N)NC(=O)[C@H](Cc2ccc3ccccc3c2)NC(=O)[C@H]2CCCCN2C(=O)[C@@H](CC(=O)O)NC(=O)CN(C)C(=O)[C@@H]2CCCN2C(=O)c2cc3cc(c2)C(=O)NC[C@H](NC(=O)[C@@H](C)NC1=O)C(=O)N[C@@H](Cc1ccccc1)C(=O)N[C@@H](Cc1ccc2ccccc2c1)C(=O)N[C@@H](CCCNC(=N)N)C(=O)N[C@@H](CCCNC(=N)N)C(=O)N[C@@H](CCCNC(=N)N)C(=O)N[C@@H](CCCNC(=N)N)C(=O)N[C@H](C(=O)N[C@@H](CCCCN)C(=O)O)CNC3=O (stereo in doubt; 10)	3.42
C[C@H]1NC(=O)[C@H](CC(=O)O)NC(=O)[C@H](CCCNC(=N)N)NC(=O)[C@H](Cc2ccc3ccccc3c2)NC(=O)[C@H]2CCCCN2C(=O)[C@@H](CC(=O)O)NC(=O)CN(C)C(=O)[C@@H]2CCCN2C(=O)c2cc3cc(c2)C(=O)NC[C@H](NC1=O)C(=O)N[C@@H](Cc1ccccc1)C(=O)N[C@@H](Cc1ccc2ccccc2c1)C(=O)N[C@@H](CCCNC(=N)N)C(=O)N[C@@H](CCCNC(=N)N)C(=O)N[C@@H](CCCNC(=N)N)C(=O)N[C@@H](CCCNC(=N)N)C(=O)N[C@H](C(=O)N[C@@H](CCCCN)C(=O)O)CNC3=O	3.19

The remaining compounds from weak to strong by Kd, led by results:

Kd [µM]	SMILES
4.83	CN1CC(=O)N[C@H](CC(=O)O)C(=O)N2CCCC[C@@H]2C(=O)N[C@@H](Cc2ccc3ccccc3c2)C(=O)N[C@@H](CCCNC(=N)N)C(=O)NCCC(=O)NCCC(=O)N[C@H]2CNC(=O)c3cc(cc(c3)C(=O)N3CCC[C@H]3C1=O)C(=O)NC[C@@H](C(=O)N[C@@H](CCCCN)C(=O)O)NC(=O)[C@H](CCCNC(=N)N)NC(=O)[C@H](CCCNC(=N)N)NC(=O)[C@H](CCCNC(=N)N)NC(=O)[C@H](CCCNC(=N)N)NC(=O)[C@H](Cc1ccc3ccccc3c1)NC(=O)[C@H](Cc1ccccc1)NC2=O
3.1	C[C@@H]1NC(=O)[C@H](CCCNC(=N)N)NC(=O)[C@H](Cc2ccc3ccccc3c2)NC(=O)[C@H]2CCCCN2C(=O)[C@@H]([C@H](C)O)NC(=O)[C@H](Cc2ccc(F)cc2)NC(=O)[C@@H](Cc2ccccc2)NC(=O)c2cc3cc(c2)C(=O)NC[C@H](NC(=O)[C@@H](Cc2ccccc2)NC1=O)C(=O)N[C@H](CCCNC(=N)N)C(=O)N[C@@H](CCCNC(=N)N)C(=O)N[C@H](CCCNC(=N)N)C(=O)N[C@@H](CCCNC(=N)N)C(=O)N[C@@H](Cc1ccc2ccccc2c1)C(=O)N[C@@H](Cc1ccccc1)C(=O)N[C@H](C(=O)N[C@@H](CCCCN)C(=O)O)CNC3=O
2.17	C[C@H]1NC(=O)[C@H](Cc2ccc(O)cc2)NC(=O)[C@H](CCCNC(=N)N)NC(=O)[C@H](Cc2ccc3ccccc3c2)NC(=O)[C@H]2CCCCN2C(=O)[C@@H](CC(=O)O)NC(=O)CN(C)C(=O)[C@@H]2CCCN2C(=O)c2cc3cc(c2)C(=O)NC[C@H](NC1=O)C(=O)N[C@@H](Cc1ccccc1)C(=O)N[C@@H](Cc1ccc2ccccc2c1)C(=O)N[C@@H](CCCNC(=N)N)C(=O)N[C@@H](CCCNC(=N)N)C(=O)N[C@@H](CCCNC(=N)N)C(=O)N[C@@H](CCCNC(=N)N)C(=O)N[C@H](C(=O)N[C@@H](CCCCN)C(=O)O)CNC3=O
1.75	CC(C)[C@@H]1NC(=O)[C@H](CCCNC(=N)N)NC(=O)[C@H](Cc2ccc3ccccc3c2)NC(=O)[C@H]2CCCCN2C(=O)[C@@H](CC(=O)O)NC(=O)CN(C)C(=O)[C@@H]2CCCN2C(=O)c2cc3cc(c2)C(=O)NC[C@H](NC(=O)[C@@H](C)NC1=O)C(=O)N[C@@H](Cc1ccccc1)C(=O)N[C@@H](Cc1ccc2ccccc2c1)C(=O)N[C@@H](CCCNC(=N)N)C(=O)N[C@@H](CCCNC(=N)N)C(=O)N[C@@H](CCCNC(=N)N)C(=O)N[C@@H](CCCNC(=N)N)C(=O)N[C@H](C(=O)N[C@@H](CCCCN)C(=O)O)CNC3=O
1.38	C[C@@H]1NC(=O)[C@H](CCCNC(=N)N)NC(=O)[C@H](Cc2ccc3ccccc3c2)NC(=O)[C@H]2CCCCN2C(=O)[C@@H]([C@H](C)O)NC(=O)[C@H](Cc2ccc(F)cc2)NC(=O)[C@@H](Cc2ccccc2)NC(=O)c2cc3cc(c2)C(=O)NC[C@H](NC(=O)[C@@H](Cc2ccccc2)NC1=O)C(=O)N[C@@H](CCCNC(=N)N)C(=O)N[C@@H](CCCNC(=N)N)C(=O)N[C@@H](Cc1ccc2ccccc2c1)C(=O)N[C@@H](Cc1ccccc1)C(=O)N[C@@H](CCCNC(=N)N)C(=O)N[C@@H](CCCNC(=N)N)C(=O)N[C@H](C(=O)N[C@@H](CCCCN)C(=O)O)CNC3=O
0.98	C[C@@H]1NC(=O)[C@H](CCCNC(=N)N)NC(=O)[C@H](Cc2ccc3ccccc3c2)NC(=O)[C@H]2CCCCN2C(=O)[C@@H]([C@H](C)O)NC(=O)[C@H](Cc2ccc(F)cc2)NC(=O)[C@@H](Cc2ccccc2)NC(=O)c2cc3cc(c2)C(=O)NC[C@H](NC(=O)[C@@H](Cc2ccccc2)NC1=O)C(=O)N[C@@H](CCCNC(=N)N)C(=O)N[C@@H](CCCNC(=N)N)C(=O)N[C@@H](CCCNC(=N)N)C(=O)N[C@@H](CCCNC(=N)N)C(=O)N[C@@H](Cc1ccc2ccccc2c1)C(=O)N[C@@H](Cc1ccccc1)C(=O)N[C@H](C(=O)N[C@@H](CCCCN)C(=O)O)CNC3=O

Reference: ChEMBL document CHEMBL3588828, “A Selective, Cell-Permeable Nonphosphorylated Bicyclic Peptidyl Inhibitor against Peptidyl-Prolyl Isomerase Pin1” (J Med Chem, 2015)
